The values below come from ChEMBL document CHEMBL5465560, “Selectivity Literature for EUbOPEN Chemogenomic Library” (2024).

Test [1] concerns the target Ribosomal protein S6 kinase alpha-5 (Homo sapiens) (UniProt O75582). Description: Selectivity interaction (ActivX KiNativ screen (ex vivo kinase selectivity in human PBMCs)) EUB0001619a RPS6KA5. The class given is cell-based. As to conditions: PBMC, at 1 µM.
The target of test [2] is Cyclin-dependent kinase 17 (Homo sapiens) (UniProt Q00537). Description: Selectivity interaction (KinomeScan (DiscoverX)) EUB0001049a CDK17. Particulars: at 1 µM.
Chain of Cyclin-dependent kinase 17 (Homo sapiens) (Q00537 whole entry, looked up): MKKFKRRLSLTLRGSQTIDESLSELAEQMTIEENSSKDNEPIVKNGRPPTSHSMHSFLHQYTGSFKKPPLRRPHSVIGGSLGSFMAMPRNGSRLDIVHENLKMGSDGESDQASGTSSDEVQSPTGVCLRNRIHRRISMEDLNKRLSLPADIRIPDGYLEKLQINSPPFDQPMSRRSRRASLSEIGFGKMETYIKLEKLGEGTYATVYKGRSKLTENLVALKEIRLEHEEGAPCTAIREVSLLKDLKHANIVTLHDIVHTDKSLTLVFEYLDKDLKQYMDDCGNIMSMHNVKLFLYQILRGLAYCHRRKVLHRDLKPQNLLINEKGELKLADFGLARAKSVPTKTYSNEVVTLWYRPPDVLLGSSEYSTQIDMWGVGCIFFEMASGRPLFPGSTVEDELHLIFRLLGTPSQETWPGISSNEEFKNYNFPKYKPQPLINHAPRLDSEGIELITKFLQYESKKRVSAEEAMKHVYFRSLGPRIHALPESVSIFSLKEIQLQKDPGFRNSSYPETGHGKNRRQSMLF
For test [3], the target named is T1, Calcium/calmodulin-dependent protein kinase type IV (Homo sapiens) (UniProt Q16566).
T1 sequence (whole entry): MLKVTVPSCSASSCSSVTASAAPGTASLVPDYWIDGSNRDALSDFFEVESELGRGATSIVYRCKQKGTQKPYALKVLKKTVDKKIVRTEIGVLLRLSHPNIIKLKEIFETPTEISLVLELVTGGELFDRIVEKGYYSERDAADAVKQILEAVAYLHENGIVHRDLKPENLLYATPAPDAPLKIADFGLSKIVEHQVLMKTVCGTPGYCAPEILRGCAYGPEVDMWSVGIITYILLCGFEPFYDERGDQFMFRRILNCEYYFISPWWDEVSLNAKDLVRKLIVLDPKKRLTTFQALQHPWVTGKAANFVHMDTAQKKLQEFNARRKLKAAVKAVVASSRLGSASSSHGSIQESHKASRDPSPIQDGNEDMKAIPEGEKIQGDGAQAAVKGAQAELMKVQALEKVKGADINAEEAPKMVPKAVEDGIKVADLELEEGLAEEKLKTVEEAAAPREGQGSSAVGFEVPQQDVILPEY
The experiment in a line: Selectivity interaction (Upstate Kinase Profiler service (Millipore)) EUB0000056c CAMK4. As to conditions: at 1 µM.

The target of test [4] is T2, Cyclin-dependent kinase-like 5 (Homo sapiens) (UniProt O76039).
T2 sequence (whole entry): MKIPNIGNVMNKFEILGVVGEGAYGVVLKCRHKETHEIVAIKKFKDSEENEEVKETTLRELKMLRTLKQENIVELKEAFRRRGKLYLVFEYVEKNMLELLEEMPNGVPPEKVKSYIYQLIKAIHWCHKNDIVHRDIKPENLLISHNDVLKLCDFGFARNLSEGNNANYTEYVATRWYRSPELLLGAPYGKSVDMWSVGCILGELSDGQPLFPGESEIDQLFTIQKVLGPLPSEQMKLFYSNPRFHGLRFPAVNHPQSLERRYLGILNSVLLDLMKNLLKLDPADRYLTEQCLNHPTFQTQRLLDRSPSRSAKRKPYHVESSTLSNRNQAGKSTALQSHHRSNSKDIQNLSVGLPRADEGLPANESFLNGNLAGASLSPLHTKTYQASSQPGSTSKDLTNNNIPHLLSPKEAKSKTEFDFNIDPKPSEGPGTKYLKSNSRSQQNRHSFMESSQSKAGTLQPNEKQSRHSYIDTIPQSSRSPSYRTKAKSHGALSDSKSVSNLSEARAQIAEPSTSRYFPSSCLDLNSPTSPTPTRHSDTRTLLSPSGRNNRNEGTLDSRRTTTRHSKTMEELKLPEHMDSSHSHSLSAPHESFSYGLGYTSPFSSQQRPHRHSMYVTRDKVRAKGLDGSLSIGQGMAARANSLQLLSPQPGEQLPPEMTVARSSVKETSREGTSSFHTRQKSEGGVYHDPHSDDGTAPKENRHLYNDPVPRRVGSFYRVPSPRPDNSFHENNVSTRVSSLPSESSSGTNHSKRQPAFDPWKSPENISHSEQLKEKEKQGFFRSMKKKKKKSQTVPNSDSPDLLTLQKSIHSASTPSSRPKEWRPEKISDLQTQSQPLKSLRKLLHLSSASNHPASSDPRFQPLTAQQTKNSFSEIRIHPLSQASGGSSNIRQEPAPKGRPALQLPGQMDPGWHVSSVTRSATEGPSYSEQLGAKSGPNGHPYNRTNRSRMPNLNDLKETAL
The experiment in a line: Selectivity interaction (KinomeScan (DiscoverX)) EUB0000618a CDKL5. Particulars: at 10 µM.

The target of test [5] is CDK6/cyclin D2 (Homo sapiens) (UniProt Q00534+P30279). The experiment in a line: Selectivity interaction (Millipore kinase profiler) EUB0000124b CDK6. The class given is protein-complex assay. As to conditions: at 10 µM.
In test [6] the target is T3, Mitogen-activated protein kinase kinase kinase 19 (Homo sapiens) (UniProt Q56UN5).
T3 sequence (whole entry): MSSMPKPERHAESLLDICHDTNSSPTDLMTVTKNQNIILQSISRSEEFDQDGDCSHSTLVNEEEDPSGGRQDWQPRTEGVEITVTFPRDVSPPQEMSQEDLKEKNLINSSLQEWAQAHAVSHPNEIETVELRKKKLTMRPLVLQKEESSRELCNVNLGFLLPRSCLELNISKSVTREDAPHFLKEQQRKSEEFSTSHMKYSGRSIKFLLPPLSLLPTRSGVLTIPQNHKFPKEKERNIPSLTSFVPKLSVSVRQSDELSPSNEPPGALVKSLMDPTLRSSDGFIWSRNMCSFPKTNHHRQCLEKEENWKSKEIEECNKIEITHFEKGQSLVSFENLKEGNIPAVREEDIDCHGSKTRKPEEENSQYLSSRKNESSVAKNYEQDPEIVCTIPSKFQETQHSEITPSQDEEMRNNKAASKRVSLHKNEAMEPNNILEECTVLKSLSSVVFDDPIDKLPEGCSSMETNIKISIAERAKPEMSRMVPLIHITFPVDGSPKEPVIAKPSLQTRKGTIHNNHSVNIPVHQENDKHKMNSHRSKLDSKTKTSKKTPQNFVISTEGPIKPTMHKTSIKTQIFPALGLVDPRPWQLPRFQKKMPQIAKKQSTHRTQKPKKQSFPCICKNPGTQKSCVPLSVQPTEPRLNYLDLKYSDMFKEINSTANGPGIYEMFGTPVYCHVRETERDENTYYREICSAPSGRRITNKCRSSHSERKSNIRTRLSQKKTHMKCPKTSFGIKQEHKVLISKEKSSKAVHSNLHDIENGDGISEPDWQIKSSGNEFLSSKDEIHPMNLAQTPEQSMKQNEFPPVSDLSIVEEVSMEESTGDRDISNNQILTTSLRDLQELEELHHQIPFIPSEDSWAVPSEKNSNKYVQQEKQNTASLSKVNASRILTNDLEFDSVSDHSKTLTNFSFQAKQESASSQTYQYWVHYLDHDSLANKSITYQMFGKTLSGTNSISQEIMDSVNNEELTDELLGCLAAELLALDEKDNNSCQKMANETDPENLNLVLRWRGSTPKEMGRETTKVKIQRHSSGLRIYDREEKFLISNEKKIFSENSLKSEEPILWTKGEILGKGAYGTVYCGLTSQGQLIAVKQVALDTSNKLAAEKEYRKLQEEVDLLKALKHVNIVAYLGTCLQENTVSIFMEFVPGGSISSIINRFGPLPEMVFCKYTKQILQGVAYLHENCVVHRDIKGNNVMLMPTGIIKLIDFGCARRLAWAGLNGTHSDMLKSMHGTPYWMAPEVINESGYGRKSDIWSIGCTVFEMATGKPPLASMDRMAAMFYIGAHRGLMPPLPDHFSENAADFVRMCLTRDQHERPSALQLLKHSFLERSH
The experiment in a line: Selectivity interaction (KinomeScan (DiscoverX)) EUB0000229b MAP3K19. As to conditions: at 10 µM.

Chain of Ribosomal protein S6 kinase alpha-5 (Homo sapiens) (O75582 whole entry, looked up): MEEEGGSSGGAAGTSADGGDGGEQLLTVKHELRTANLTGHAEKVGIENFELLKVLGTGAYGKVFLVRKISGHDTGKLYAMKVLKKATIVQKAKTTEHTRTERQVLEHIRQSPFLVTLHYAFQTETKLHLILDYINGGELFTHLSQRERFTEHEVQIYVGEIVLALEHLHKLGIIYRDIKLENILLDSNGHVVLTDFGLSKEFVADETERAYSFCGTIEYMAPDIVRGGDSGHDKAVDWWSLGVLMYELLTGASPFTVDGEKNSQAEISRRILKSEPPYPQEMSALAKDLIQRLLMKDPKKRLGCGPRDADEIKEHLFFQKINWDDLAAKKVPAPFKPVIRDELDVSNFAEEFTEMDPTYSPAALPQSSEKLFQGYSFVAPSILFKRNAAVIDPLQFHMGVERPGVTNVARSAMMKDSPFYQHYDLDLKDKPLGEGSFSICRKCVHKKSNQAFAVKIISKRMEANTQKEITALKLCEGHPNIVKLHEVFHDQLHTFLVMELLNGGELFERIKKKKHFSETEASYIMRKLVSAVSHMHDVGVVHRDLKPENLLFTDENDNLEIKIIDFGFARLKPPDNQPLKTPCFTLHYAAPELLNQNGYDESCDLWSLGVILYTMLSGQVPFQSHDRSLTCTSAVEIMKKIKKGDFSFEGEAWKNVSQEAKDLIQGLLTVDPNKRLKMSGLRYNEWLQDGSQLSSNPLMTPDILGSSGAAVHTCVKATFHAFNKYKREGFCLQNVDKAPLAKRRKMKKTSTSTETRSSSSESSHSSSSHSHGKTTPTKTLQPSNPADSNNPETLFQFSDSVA

As for `N#Cc1cccc(-c2c[nH]c3ncnc(N4CCOCC4)c23)c1`, the % of inhibition in test [1] is -4%.

With `COc1cc(Nc2nc(C)cc(-c3cnn4nc(OC)ccc34)n2)cc(C(F)(F)F)c1`, in test [2], the % of control stood at 100%.

`Cc1ccc(-c2ccc3c(ccc4sc5c(c43)NC[C@@H](C)NC5=O)n2)cn1`: the % of inhibition in test [3] stood at 15%.

As to `O[C@H]1CC[C@H](Nc2ncc3nc(Nc4c(F)cc(F)cc4F)n([C@H]4CCOC4)c3n2)CC1`, in test [4], the % of control worked out at 100%.

Regarding `CC(=O)Nc1cccc(-n2c(=O)n(C3CC3)c(=O)c3c(Nc4ccc(I)cc4F)n(C)c(=O)c(C)c32)c1`, the % of control in test [5] came out at 107%.

On to `COc1cc(N(C)c2ccnc3ccc(C(F)(F)F)cc23)cc(OC)c1OC`, for which, in test [6], the % binding stood at 94%.
